Patent US10882826B2, “Quinolinone or quinazolinone comprising antibiofilm compositions, compounds and methods and uses relating thereto” (University College Cork—National University of Ireland, priority 2015, dated 2021)

Legend:
[1] = test system: A. fumigatus Af293 biofilm; assay: A. fumigatus biofilm assay (crystal violet); assay type: cell-based, Aspergillus fumigatus; details: for Relative absorbance at 595 nm compared to methanol control, Mean: A. fumigatus Af293 biofilm, 100 μM, 24 hrs, crystal violet; for effectiveness against fungal biofilms formed by Aspergillus fumigatus (in words): summary statement
Experimental: A. fumigatus Af293 was routinely grown on Sabouraud dextrose agar (SDA) in 100 ml cell culture flasks at 37° C. for 3-4 days until a lawn of fungal growth was observed.
(§1) A. fumigatus Af293 was grown on SDA in 100 ml cell culture flasks at 37° C. for 3-4 days. Conidia were harvested by flooding the surface of the agar plates with 5 ml PBS (Oxoid) containing 0.025% (v/v) Tween 20 and gently moving the liquid over the surface of the fungal lawn. The conidial suspension was transferred into a 25 ml sterile container and conidia were counted using a Neubauer haemocytometer and light microscope. Conidia were adjusted to the required concentration in RPMI 1640 (Sigma) buffered to pH 7.0 with 0.165 M MOPS immediately prior to biofilm formation analysis.
(§2) To assess biofilm formation, counted A. fumigatus spores (1×10^5) in MOPS buffered RPMI 1640 were inoculated into 24- and 96-well plates and grown overnight in the presence of 100 μM HHQ, PQS and the test compounds. After 24 hrs, the media was removed and the biofilm washed twice with distilled water after which 0.1% crystal violet (CV) was added to each well and allowed to stand for 1 hr at room temperature. The crystal violet was removed and all wells washed in a water bath by inversion. Ethanol was added to each well to solubilise biofilms after which samples were read on a spectrophotometer at Abs595 nm.

mammalian cells = assay: Cytotoxicity towards mammalian cells (summary statement); assay type: cell-based
Experimental: Lactate dehydrogenase (LDH) release from IB3 lung epithelial cells was assayed as a measure of cytotoxicity using an LDH colorimetric kit (Roche) according to manufacturers' instructions. Briefly, IB3-1 cells were seeded onto 96 well plates and treated with methanol (control) and test compounds (100 μM). Following 16 hr incubation at 37° C. and 5% CO2, supernatants were removed and added to catalyst reaction mixture in a fresh plate and further incubated at 37° C. and 5% CO2 for 30 mins to allow for colour development. After this period, the plate was analysed on an ELISA plate reader at OD490 nm. Cytotoxicity was expressed as a percentage of cells treated with 0.1% (v/v) Triton (100% cytotoxicity). The results are detailed in table 3:
The above experiments were repeated, testing some compounds against further cell lines (A549, DU145 and HeLa).

Pseudomonus aeruginosa = assay: Virulence of Pseudomonas aeruginosa (summary statement); assay type: cell-based; details: unlike HHQ and PQS
Experimental: The virulence of compounds B1, B2, C2, C3, C4, C5, C6, C8 and C11 towards P. aeruginosa was assessed using the following method:
P. aeruginosa strains were cultured as described above for 24 hr, with the addition of test compounds (10 μM). Cultures were centrifuged at 4000 rpm for 10 minutes and the cell free supernatant (5 ml) removed. Chloroform (3 ml) was added, and mixed by vortex. After centrifugation at 4000 rpm for 5 mins, the lower aqueous phase was transferred to 0.2 M HCl (2 ml). Samples were mixed by vortex and centrifuged at 4000 rpm for 5 mins to separate the phases. An aliquot of the top phase (1 ml) was removed and spectrophotmetrically analysed at OD570 nm. Phenazine production was calculated using the following formula: OD570 nm×2×17.072 and the units expressed in μg/ml. […]

[2] = test system: P. aeruginosa PAO1 pqsA-pqsA-lacZ strain; assay: Phenazine extraction (phenazine production); assay type: cell-based; details: for Normalised Phenazine, Mean: normalized to the methanol control (=1), n>=2; for Phenazine, Mean: PAO1 pqsA-pqsA-lacZ strain, test compounds 10 μM, 24 hr, methanol control 0.080
Experimental: (§3) P. aeruginosa strains, PAO1 and pqsA mutant, containing the chromosomally inserted pqsA-lacZ promoter fusion on plasmid pUC18-mini-Tn7, were sub-cultured from glycerol stocks onto LB agar plates, supplemented with Carbenicillin (200 μg/ml) and X-gal (40 μg/ml), and incubated at 37° C. overnight. Single colonies were inoculated into LB broth (20 ml), supplemented with Carbenicillin (200 μg/ml), and incubated at 37° C., shaking at 180 rpm overnight. For subsequent experiments, the OD600 nm was recorded and a starting OD600 nm of 0.02 was inoculated into fresh LB broth, supplemented with Carbenicillin (200 μg/ml) and incubated at 37° C., shaking at 180 rpm.
P. aeruginosa strains were cultured as described above for 24 hr, with the addition of test compounds (10 μM). Cultures were centrifuged at 4000 rpm for 10 minutes and the cell free supernatant (5 ml) removed. Chloroform (3 ml) was added, and mixed by vortex. After centrifugation at 4000 rpm for 5 mins, the lower aqueous phase was transferred to 0.2 M HCl (2 ml). Samples were mixed by vortex and centrifuged at 4000 rpm for 5 mins to separate the phases. An aliquot of the top phase (1 ml) was removed and spectrophotmetrically analysed at OD570 nm. Phenazine production was calculated using the following formula: OD570 nm×2×17.072 and the units expressed in μg/ml.
(§4) The phenazine production levels and Miller units in the PAO1 pqsA-pqsA-lacZ strain are detailed in table 5.
(§5) The virulence of compounds B2, C13 and C15 towards P. aeruginosa was assessed using an analogous method.

[3] = test system: pqsA-lacZ promoter fusion; assay: Promoter fusion based expression analysis (pqsA-lacZ, Miller units); assay type: cell-based, P. aeruginosa; details: for Normalised Miller Units, Mean: normalized to the methanol control (=1), n>=2; for Miller Units, Mean: PAO1 pqsA-pqsA-lacZ strain, 100 μM, overnight, methanol control 12287
Experimental: as §3
Promoter fusion analyses were performed in a 96-well format. Briefly, overnight cultures of wild-type PAO1 pqsA-lacZ (pLP0996) and mutant strain PAO1 pqsA^− pqsA-LacZ were diluted to OD600 nm=0.02 in LB. Test compounds at 100 μM final concentration were added, mixed, aliquoted into 96 well plates and incubated overnight at 37° C. with shaking. The next day, OD600 nm values were recorded in a plate reader. Aliquots of cells (0.02 ml) were permeabilised [100 mM dibasic sodium phosphate (Na2HPO4), 20 mM KCl, 2 mM MgSO4, 0.8 mg/mL CTAB (hexadecyltrimethylammonium bromide), 0.4 mg/mL sodium deoxycholate, 5.4 μL/mL beta-mercaptoethanol] and added to substrate solution [60 mM Na2HPO4, 40 mM NaH2PO4, 1 mg/mL o-nitrophenyl-β-D-Galactoside (ONPG), 2.7 μL/mL β-mercaptoethanol]. The kinetics of colour development was monitored and the reactions were stopped using 1M NaCO3. OD420 nm were recorded as above. Miller units were calculated using the following equation; 1000×[OD420 nm/(OD600 nm)×0.02 ml×reaction time (mins)].
as §4, §5

[4] = test system: A. fumigatus CFBRC3 biofilm; assay: A. fumigatus biofilm assay, clinical source CFBRC3; assay type: cell-based, Aspergillus fumigatus; details: biofilm from clinical source CFBRC3
Experimental: as §1, §2
(§6) The above experiments were carried out using biofilms grown from laboratory sources of A. fumigatus. The experiments were repeated to test some compounds against biofilms grown from three different clinical sources of A. fumigatus (CFBRC1, CFBRC2 and CFBRC3. The results are shown in table 8: […]

[5] = test system: A. fumigatus CFBRC1 biofilm; assay: A. fumigatus biofilm assay, clinical source CFBRC1; assay type: cell-based, Aspergillus fumigatus; details: biofilm from clinical source CFBRC1
Experimental: as §1, §2, §6

[6] = test system: A. fumigatus CFBRC2 biofilm; assay: A. fumigatus biofilm assay, clinical source CFBRC2; assay type: cell-based, Aspergillus fumigatus; details: biofilm from clinical source CFBRC2
Experimental: as §1, §2, §6

[7] = test system: C. albicans strain SC5314 biofilm; assay: XTT metabolic assay of C. albicans biofilm; assay type: cell-based, Candida albicans; details: C. albicans biofilm, test compound 100 μM, 24 hr; MeOH control 0.647, untreated 0.851
Experimental: C. albicans strain SC5314 was sub-cultured from 15% (v/v) glycerol stocks at −80° C. onto Yeast Peptone Dextrose (YPD) medium [1% (w/v) yeast extract, 2% (w/v) peptone and 2% (w/v) dextrose] and incubated at 30° C. overnight.
The test compounds in desiccated form were re-suspended in Methanol to create a 10 mM stock. […]
The ability of some of the compounds detailed in example 1 to disrupt Candida albicans was tested using Confocal Scanning Laser Microscopy and an XTT Metabolic Assay. The XTT assay is a commonly used quantitative method assessing Candida biofilm mass and growth often in response to novel drug therapies.
C. albicans biofilm formation was carried out in 96 well plates by a method of the prior art. Briefly, C. albicans was inoculated into Yeast Nitrogen Base [10% (w/v)] and glucose/maltose [10% (w/v)] and incubated overnight at 30° C. Seeding densities for all subsequent experiments (N=3) were OD600=0.05. Cells were grown in Yeast Nitrogen Base supplemented with 1 M Phosphate buffer and acetyl-D-glucosamine (YNB-NP) along with appropriate volumes of test compound to provide the desired concentration. Cells were cultured in 96 well plates for 1 hr at 37° C. to facilitate yeast attachment. After this incubation, the supernatants were aspirated, the wells washed twice with YNB-NP media, and fresh media with the same concentration of test compound added to the appropriate wells. The plate was incubated for 24 hr at 37° C. The next day, the cultures were aspirated and the wells washed once with YNB-NP media.
C. albicans biofilm quantification was carried out in 96 well plates using a semi-quantitative Tetrazolium salt, 2,3-bis-(2-methoxy-4-nitro-5-sulfophenyl)-2H tetrazolium-5-carboxanilide inner salt (XTT) reduction assay (Hawser, Tunney et al, Antimicrob Agents Chemother. 2004 May; 48(5):1879-81). XTT (0.01 g) was dissolved in sterile water (20 ml) and filter sterilized. 10 μl of Menadione dissolved in Acetone was added to the XTT solution, just before use. The XTT-Menadione Solution (100 μl) was added to each well. The plate was incubated in the dark at 37° C. for up to 2 hr to allow for colour development. The OD492 nm was recorded for each well. Experiments were repeated at least three times, with at least eight technical replicates.
Experiments were first carried out using the test compound at concentration of 100 μM.

SMILES | Relative absorbance at 595 nm compared to methanol control, Mean [1] | effectiveness against fungal biofilms formed by Aspergillus fumigatus (in words) [1] | cytotoxicity towards mammalian cells (in words) (mammalian cells) | effect on virulence of Pseudomonus aeruginosa (in words) (Pseudomonus aeruginosa) | Normalised Phenazine, Mean [2] | Normalised Miller Units, Mean [3] | Relative absorbance compared to MeOH (=1), Mean [4] | Relative absorbance compared to MeOH (=1), Mean [5] | Relative absorbance compared to MeOH (=1), Mean [6] | Phenazine, Mean [2] [µg/mL] | Miller Units, Mean [3] [Miller Units] | Absorbance at 492 nm, Mean (XTT) [7]
CCCCCCCc1cc(=O)c2cc(CCCCCC)ccc2[nH]1 [Compound C7] | 0.27 | effective | reduced cytotoxicity | do not increase the virulence | – | – | – | – | – | – | – | –
CCCCCCCc1cc(=O)c2cc(C(=O)OCC)ccc2[nH]1 [Compound C13] | 0.38 | effective | reduced cytotoxicity | do not increase the virulence | 0.747 ratio to methanol control | 0.3715 | 0.609 | 0.507 | 0.620 | – | – | –
CCCCCCCc1cc(=O)c2ccc(OC)cc2[nH]1 [Compound C9] | 0.18 | effective | reduced cytotoxicity | do not increase the virulence | – | – | 0.439 | 0.593 | 0.484 | – | – | –
CCCCCCCCCc1cc(=O)c2cc(OC)ccc2[nH]1 [Compound C8] | 0.47 | effective | reduced cytotoxicity | do not increase the virulence | – | – | – | – | – | 0.205 | 11753 | 0.457
CCCCCCCc1cc(=O)c2cc(OC)ccc2[nH]1 [Compound C11] | – | – | reduced cytotoxicity | do not increase the virulence | – | – | – | – | – | 0.432 | 12254 | 0.242
CCCCCCCc1cc(=O)c2c(C)cc(C)cc2[nH]1 [Compound C15] | 0.25 | effective | reduced cytotoxicity | do not increase the virulence | 0.4984 ratio to methanol control | 0.4671 | 0.413 | 0.518 | 0.443 | – | – | –
CCCCCCCc1cc(=O)c2cc(F)ccc2[nH]1 [Compound C14] | 0.42 | – | reduced cytotoxicity | – | – | – | 0.501 | 0.550 | 0.823 | – | – | –
